Reference: PubChem BioAssay (NCI)
Where “and” joins values, the source holds several entries; their conditions need not be identical. Equal entries are not always repeated.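 Following 48 hours of exposure in 96-well plates, responses at five concentrations were used to interpolate endpoints linearly. GI50 is the concentration that inhibits growth by half. TGI: total growth inhibition.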 Where a SMILES comes first, the peptide text is derived from it. [ ]: non-standard residue; d: D form. The star is where a group is joined. dTle = CC(C)(C)[C@@H](N)C(=O)O; 4Abz = Nc1ccc(C(=O)O)cc1; NHOH = ON*

Legend:
Assay in all cases: NCI anticancer screen, dose series, 48 h
UACC-257 melanoma = tested on: UACC-257 melanoma
TK-10 renal = tested on: TK-10 renal
M14 melanoma = tested on: M14 melanoma
CAKI-1 renal = tested on: CAKI-1 renal
SK-MEL-28 melanoma = tested on: SK-MEL-28 melanoma
NCI-H460 lung = tested on: NCI-H460 lung
RXF 393 renal = tested on: RXF 393 renal
RPMI-8226 leukemia = tested on: RPMI-8226 leukemia
SK-MEL-5 melanoma = tested on: SK-MEL-5 melanoma
MOLT-4 leukemia = tested on: MOLT-4 leukemia

SMILES	TGI (UACC-257 melanoma) [µM]	TGI (TK-10 renal) [µM]	TGI (M14 melanoma) [µM]	TGI (CAKI-1 renal)	TGI (SK-MEL-28 melanoma) [µM]	TGI (NCI-H460 lung)	TGI (RXF 393 renal) [µM]	GI50 (UACC-257 melanoma) [µM]	GI50 (TK-10 renal) [µM]	GI50 (M14 melanoma) [µM]	GI50 (RPMI-8226 leukemia) [µM]	TGI (RPMI-8226 leukemia)	GI50 (SK-MEL-5 melanoma) [µM]	TGI (SK-MEL-5 melanoma) [µM]	GI50 (SK-MEL-28 melanoma)	GI50 (MOLT-4 leukemia) [µM]	TGI (MOLT-4 leukemia)	GI50 (NCI-H460 lung)	GI50 (RXF 393 renal) [µM]	GI50 (CAKI-1 renal) [µM]
CC1=C(O)/C(=C/C(C)CCC/C(C)=C/C=C/C(C)CCCc2ccoc2)OC1=O (configuration not stated)	66.3	78.6	> 100	> 100 µM	> 100	> 100 µM	> 100													
O=C1C=CC(=O)N1c1cccc(N2C(=O)C=CC2=O)c1	3.32	3.13	3.71		3.78	38.6 µM	3.1	1.65	1.71	1.85	2.94	7.19 µM	10.9	23	1.95 µM	2.74	7.73 µM	18.3 µM	1.7	
Clc1ccccc1CNc1c2ccccc2nc2ccccc12	11.5	11	9.98	8.08 µM	9.21	6.19 µM	4.44	2.99	3.98	2.04			3.09	9.34	2.75 µM	1.84	16.3 µM	1.7 µM	1.29	2.11
CN(C)CCNc1c2ccccc2nc2oc3ccccc3c12	27	55.5	32.5	> 100 µM	25.3	13.3 µM		7.88	5.86	11.3			8.09	20.5	11.8 µM	3	12.1 µM	3.37 µM		14.5
N#CC1(C#N)C2C=CC(c3coc4cccc2c34)C1(C#N)C#N (configuration not stated)	23.1	18.6	25.3		10.8	37.4 µM	9.66					19.9 µM		28.8			6.35 µM			
CC(=O)O[C@@]1(C)[C@@H](C)C(=O)O[C@@H]2CCN3CC=C(COC(=O)[C@]1(C)O)[C@H]23	> 100	> 100	> 100	> 100 µM	> 100	> 100 µM						> 100 µM		> 100			> 100 µM			
C[C@@H](NC(=O)[C@H](NC(=O)[C@@H]1CCCN1C(=O)CNC(=O)c1ccc(N)cc1)C(C)(C)C)C(=O)NO (H-[4Abz]GP[dTle][dA]-{NHOH})	> 100	> 100	> 100	> 100 µM	> 100	> 100 µM		> 100	> 100	> 100			> 100	> 100	> 100 µM	> 100	> 100 µM	> 100 µM		> 100
Cn1c(N)nc(=O)c2c1N(C1OC(CO)C(O)C1O)CN2Cc1ccccc1 (configuration not stated)	> 100	> 100	> 100	> 100 µM		> 100 µM	> 100					> 100 µM		> 100			> 100 µM			
COc1cc(-c2csc(NC(=O)Nc3ccc(C(F)(F)F)cc3)n2)cc(OC)c1OC	5.91		5.1	8.62 µM	5.79	7.01 µM	5.89	2.47		2	2.26	8.69 µM	1.62	3	2.22 µM	1.85	5.46 µM	2.52 µM	2.18	2.41
Nc1ccc(-c2cccs2)cc1NC(=O)c1ccc(CCCC(=O)Nc2ccc(C3CC3N)cc2)cc1 (configuration not stated)		39.2		> 100 µM			30		2.44				1.91	6.23					2.45	> 100
CCCN(CCC)c1ccc(/C=N/NC(=O)c2cccnc2)c(OC)c1	67.6	90.1		93.2 µM	98	75.4 µM	84.8	20.7	28.7		34.5	> 100 µM	14.3	28.1	26.6 µM	22.8	51.7 µM	24.1 µM	28.7	21.5
CC(C)=CCC/C(C)=C\CCC1(C)OC(=O)C2CC21 (configuration not stated)	> 100	> 100		> 100 µM and 43 µM	> 100	> 100 µM and 27 µM	92.3					68.1 µM and 44.2 µM		> 100	> 100 µM and 37.5 µM		50 µM and 35 µM	41.7 µM and 14 µM		
Cc1ccc(NC(=O)CSc2nnc3n(Cc4ccccc4)c(=O)c4c(C)c(C(N)=O)sc4n23)cc1	> 100	34	> 100	> 100 µM			39	> 100	13.7	26	> 100	> 100 µM	> 100	> 100		27.3	81.5 µM		6.88	> 100
CC(=[N-])N1CCC[C@@H](Nc2c3ccccc3nc3ccccc23)C1.[Cl][Pt].[NH-]CCC[NH-]	> 100	> 46.1	23.7		2.31	> 40.8 µM	2.96	2.49	2.76	3.47	2.42	> 100 µM	0.127	0.291	0.21 µM	0.359	> 100 µM	0.0277 µM	1.25	
O=C(CC(=O)c1cccc2ccccc12)C(=O)NC1C2CC3CC(C2)CC1C3 (configuration not stated)	> 100	> 100	> 100	> 100 µM		> 100 µM						> 100 µM		> 100			> 100 µM			
CCOC(=O)c1cc(-c2ccccc2)[nH]c1N/N=C/c1ccc(Cl)cc1	> 100	> 100		> 100 µM	> 100	> 100 µM	> 100	> 100	> 100		29.8	> 100 µM	28.4	> 100	> 100 µM	16.8	> 100 µM	58.1 µM	> 100	30.9
